# From patent EP0795549A1, “Bis-aryloxy(amino)-triazinyl-oxy(amino)aryl derivatives, their preparation and their use as antiviral agents” (American Cyanamid Company, priority 1996, dated 1997)
# Where two headings read alike, the source gives them in different places.
# Experiments:
# [1] = system: HSV1 (Patton); assay: viral plaque reduction assay, HSV1; assay type: cell-based, Herpes Simplex Virus; settings: for IC50µG/mL IN PLAQUE ASSAY HSV/ VER O: HSV1 (Patton), vero host cells
# [2] = system: RSV A2; assay type: in vivo, cotton rats; settings: for inhibition of RSV in vivo (summary in words): cotton rats, summary of Table 3
# [3] = system: CMV (Ad169); assay: viral plaque reduction assay, CMV; assay type: cell-based, Cytomegalovirus; settings: for IC50µG/mL IN PLAQUE ASSAY CMV/ HF: CMV (Ad169), HF host cells; for IC50 (µG/ml) viral plaque formation: HCMV Ad169, HF, Pre
# [4] = system: CMV (Ad169); assay: viral yield reduction (growth inhibition) assay, CMV; assay type: cell-based, Cytomegalovirus; settings: HF host cells
# Protocol: (§1) The compounds were tested for biological activity using viral yield reduction assays. Host cells (indicated as HF for human foreskin fibroblasts and as vero, the commonly used African green monkey cell line, in Tables 1 and 1a) were plated at 4 x 10^4 cells/well in cell growth medium with 2% fetal bovine serum or 2% calf serum in 96-well plates (0.1 ml/well) and incubated overnight. The compounds were added to individual wells to give final concentrations ranging from 50 to 0.1 µg/ml in two-fold concentration steps. After 1 hour, virus was added, and the incubation was continued for 4 days with RSV or CMV and for 2 days with HSV. At the end of the experiment, the amount of virus growth was quantitated and the yield reduction at various concentrations of compound was calculated. This allows estimation of the concentration of compound giving 50% reduction in virus growth (IC50).
# [5] = system: RSV; assay: viral plaque reduction assay, RSV; assay type: cell-based, Respiratory Syncitial Virus; settings: for IC50µG/mL IN PLAQUE ASSAY RSV/ VERO: RSV (A2), vero host cells
# [6] = system: RSV (A2); assay: viral yield reduction (growth inhibition) assay, RSV; assay type: cell-based, Respiratory Syncitial Virus; settings: for IC50 µG/mL IN GROWTH […]/ HF: HF host cells; for IC50 µG/mL IN GROWTH […]/ VERO: vero host cells
# Protocol: as §1
# [7] = system: HSV1 (Patton); assay: viral yield reduction (growth inhibition) assay, HSV; assay type: cell-based, Herpes Simplex Virus; settings: HSV1 (Patton)
# Protocol: as §1
# [8] = system: HPIV3; assay: viral plaque reduction assay, HPIV3; assay type: cell-based, human parainfluenza virus type 3, strain Washington; settings: HPIV3 WASH., VERO, Pre
# [9] = system: RSV; assay: time of addition: effect on viral protein synthesis in infected Vero cells; assay type: cell-based
# Protocol: The time in the virus life-cycle when Example 1 exerts its effect was determined to increase understanding of the mechanism of action. This was accomplished by adding and removing the compound at various times relative to infection and assessing the effect on viral protein synthesis. Vero cells were infected on ice for 1 hour, unadsorbed virus was removed, and then the infected cells were incubated at 37°C for 18 hours (virus adsorption will occur on ice, but fusion will not proceed until the temperature is raised to 18°C or above). After the 18 hour incubation at 37°C (when the bulk of ongoing protein synthesis was directed by viral RNAs), ^35S-methionine was added for 2 hours, the cells were lysed, and the labeled proteins were analyzed on SDS-PAGE gels. The viral N, P, and M proteins were then evident. […] However, when the compound of Example 1 was added even after only 5 minutes incubation at 37°C, viral protein production was unimpeded. Therefore, the process inhibited was the fusion process or some closely succeeding step which is required for later viral gene expression.
# [10] = system: FLU; assay: viral plaque reduction assay, influenza; assay type: cell-based; settings: Pre
# [11] = system: HSV2; assay: viral plaque reduction assay, HSV2; assay type: cell-based, herpes simplex virus; settings: Pre
# [12] = EXPT 3, i.n. 30 mg/k d1,2,3, Lavage/CPE
# [13] = EXPT 3, i.n. 30 mg/k d1,2,3, Lavage/Plaque
# [14] = EXPT 3, i.n. 30 mg/k d1,2,3, Lung/Plaque
# [15] = EXPT 3, i.n. d0 15 mg/k, d1 30 mg/k, Lavage/CPE
# [16] = EXPT 3, i.n. d0 15 mg/k, d1 30 mg/k, Lavage/Plaque
# [17] = EXPT 3, i.n. d0 15 mg/k, d1 30 mg/k, Lung/Plaque
# [18] = EXPT 3, i.n. d0 15 mg/k, d1,2,3 30 mg/k, Lavage/CPE
# [19] = EXPT 3, i.n. d0 15 mg/k, d1,2,3 30 mg/k, Lavage/Plaque
# [20] = EXPT 3, i.n. d0 15 mg/k, d1,2,3 30 mg/k, Lung/Plaque
# [21] = EXPT 3, i.p. 30 mg/k d1,2,3, Lavage/CPE
# [22] = EXPT 3, i.p. 30 mg/k d1,2,3, Lavage/Plaque
# [23] = EXPT 3, i.p. 30 mg/k d1,2,3, Lung/Plaque
# [24] = RSV A2, VERO, Pre (pretreatment)
substance,measurement,setting,value
"4,4'-Bis[4,6-di[3-aminophenyl-N,N-bis(2-carbamoyl-ethyl)sulfonylimino]-1,3,5-triazin-2-ylamino]-biphenyl-2,2'-disulfonic acid, disodium salt [Example 4]",IC50µG/mL IN PLAQUE ASSAY HSV/ VER O,[1],35 µg/mL
same,IC50 (µG/ml) viral plaque formation,"[1]; HSV1 Patton, VERO, Pre",35 µg/mL
same,Fold red. log10,[2]; [12],2.51 log10
same,Mean titer log10/g lung,[2]; [12],1.67 log10/g lung
same,Fold red. log10,[2]; [13],1.2 log10
same,Mean titer log10/g lung,[2]; [13],3.09 log10/g lung
same,Fold red. log10,[2]; [14],1.18 log10
same,Mean titer log10/g lung,[2]; [14],3.37 log10/g lung
same,Fold red. log10,[2]; [15],2.52 log10
same,Mean titer log10/g lung,[2]; [15],1.66 log10/g lung
same,Fold red. log10,[2]; [16],2.03 log10
same,Mean titer log10/g lung,[2]; [16],2.26 log10/g lung
same,Fold red. log10,[2]; [17],2.23 log10
same,Mean titer log10/g lung,[2]; [17],2.32 log10/g lung
same,Fold red. log10,[2]; [18],2.13 log10
same,Mean titer log10/g lung,[2]; [18],2.05 log10/g lung
same,Fold red. log10,[2]; [19],2.04 log10
same,Mean titer log10/g lung,[2]; [19],2.25 log10/g lung
same,Fold red. log10,[2]; [20],2.3 log10
same,Mean titer log10/g lung,[2]; [20],2.25 log10/g lung
same,Fold red. log10,[2]; [21],0 log10
same,Mean titer log10/g lung,[2]; [21],4.18 log10/g lung
same,Fold red. log10,[2]; [22],0.09 log10
same,Mean titer log10/g lung,[2]; [22],4.1 log10/g lung
same,Fold red. log10,[2]; [23],0.26 log10
same,Mean titer log10/g lung,[2]; [23],3.92 log10/g lung
same,inhibition of RSV in vivo (summary in words),[2],inhibit RSV in vivo
same,Fold red. log10,"[2]; rat, in vivo",1.63 log10
same,Mean titer log10/g lung,"[2]; rat, in vivo",2.05 log10/g lung
same,IC50µG/mL IN PLAQUE ASSAY CMV/ HF,[3],> 30 µg/mL
same,IC50 (µG/ml) viral plaque formation,[3],>30 µg/mL
same,IC50 µG/mL IN GROWTH […]/ HF,[4],35 µg/mL
same,IC50 (µG/ml) viral plaque formation,"[5]; RSV 2B, VERO, Post 2 hours",0.08 µg/mL
same,IC50 (µG/ml) viral plaque formation,"[5]; RSV 3A, VERO, Post 2 hours",0.15 µg/mL
same,IC50 (µG/ml) viral plaque formation,"[5]; RSV 9320, VERO, Post 2 hours",0.18 µg/mL
same,IC50 (µG/ml) viral plaque formation,"[5]; RSV 18736, VERO, Post 2 hours",0.06 µg/mL
same,IC50µG/mL IN PLAQUE ASSAY RSV/ VERO,[5],0.1 µg/mL
same,IC50 (µG/ml) viral plaque formation,"[5]; RSV A2, VERO, Post 2 hours",0.28 µg/mL
same,IC50 (µG/ml) viral plaque formation,[5]; [24],0.1 µg/mL
same,IC50 (µG/ml) viral plaque formation,"[5]; RSV LONG, VERO, Post 2 hours",0.21 µg/mL
same,IC50 (µG/ml) viral plaque formation,"[5]; RSV RSS2, VERO, Post 2 hours",0.20 µg/mL
same,active against all RSV strains tested (plaque assays),[5],0.1 to 0.7 µg/mL
same,IC50 µG/mL IN GROWTH […]/ HF,[6],0.1 µg/mL
same,IC50 µG/mL IN GROWTH […]/ VERO,[6],0.1 µg/mL
same,IC50 µG/mL IN GROWTH […]/ HF,[7]; HF host cells,20 µg/mL
same,IC50 µG/mL IN GROWTH […]/ VERO,[7]; vero host cells,35 µg/mL
"4,4'-Bis[4,6-di[3-aminophenyl-N,N-bis(2-carbamoyl-ethyl)sulfonylimino]-1,3,5-triazin-2-ylamino]-stilbene-2,2'-disulfonic acid, disodium salt [Example 1]",IC50µG/mL IN PLAQUE ASSAY HSV/ VER O,[1],8 µg/mL
same,IC50 (µG/ml) viral plaque formation,[8],20 µg/mL
same,viral protein synthesis,[9]; 10 µg/ml added immediately after virus adsorption and before raising the incubation temperature to 37°C,fully prevented
same,viral protein production,[9]; added after only 5 minutes incubation at 37°C,unimpeded
same,inhibition of RSV in vivo (summary in words),[2],inhibit RSV in vivo
same,IC50µG/mL IN PLAQUE ASSAY CMV/ HF,[3],7 µg/mL
same,IC50 (µG/ml) viral plaque formation,[3],15 µg/mL
same,IC50 (µG/ml) viral plaque formation,"[10]; FLU A1/FM/1/47, MDCK",>50 µg/mL
same,IC50 (µG/ml) viral plaque formation,"[10]; FLU A2/HK/8/68, MDCK",>50 µg/mL
same,IC50 (µG/ml) viral plaque formation,"[10]; FLU A2/JPN/305/57, MDCK",>50 µg/mL
same,IC50 (µG/ml) viral plaque formation,"[10]; FLU A/Beij/32/92, MDCK",>20 µg/mL
same,IC50 (µG/ml) viral plaque formation,"[10]; FLU A/Texas/36/91, MDCK",5 µg/mL
same,IC50 (µG/ml) viral plaque formation,"[10]; FLU B/Pana/45/90, MDCK",>20 µg/mL
same,IC50 (µG/ml) viral plaque formation,"[5]; RSV 2B, VERO, Pre",0.1 µg/mL
same,IC50 (µG/ml) viral plaque formation,"[5]; RSV 3A, VERO, Pre",0.5 µg/mL
same,IC50 (µG/ml) viral plaque formation,"[5]; RSV 9320, VERO, Pre",0.2 µg/mL
same,IC50µG/mL IN PLAQUE ASSAY RSV/ VERO,[5],0.3 µg/mL
same,IC50 (µG/ml) viral plaque formation,"[5]; RSV A2, HF, Post 2 hours",<3 µg/mL
same,IC50 (µG/ml) viral plaque formation,"[5]; RSV A2, HF, Pre",0.4 µg/mL
same,IC50 (µG/ml) viral plaque formation,"[5]; RSV A2, MDBK, Pre",0.4 µg/mL
same,IC50 (µG/ml) viral plaque formation,"[5]; RSV A2, SKNSH, Pre",0.4 µg/mL
same,IC50 (µG/ml) viral plaque formation,"[5]; RSV A2, VERO, Post 2 hours",0.3 µg/mL
same,IC50 (µG/ml) viral plaque formation,"[5]; RSV A2, VERO, Post 24 hours",0.4 µg/mL
same,IC50 (µG/ml) viral plaque formation,[5]; [24],0.3 µg/mL
same,IC50 (µG/ml) viral plaque formation,"[5]; RSV LONG, VERO, Pre",0.2 µg/mL
same,active against all RSV strains tested (plaque assays),[5],0.1 to 0.7 µg/mL
same,IC50 (µG/ml) viral plaque formation,"[11]; HSV2 12, VERO",>10 µg/mL
same,IC50 (µG/ml) viral plaque formation,"[11]; HSV2 333, VERO",3 µg/mL
same,IC50 (µG/ml) viral plaque formation,"[11]; HSV2 MS, VERO",5 µg/mL
same,IC50 µG/mL IN GROWTH […]/ HF,[6],0.3 µg/mL
same,IC50 µG/mL IN GROWTH […]/ VERO,[6],0.5 µg/mL
